The values that follow are results of earlier work, collected in patent US20030013692A1, “Methods of treating neurological disorders” (priority 2001, published 2003).

Some results are limits rather than exact numbers.

The conditions of this data set: nimodipine treated subarachnoid hemorrhage (SAH) patients.

On to `COCCOC(=O)C1=C(C)NC(C)=C(C(=O)OC(C)C)C1c1cccc([N+](=O)[O-])c1` (stereo not shown) [nimodipine, Isopropyl (2-methoxyethyl) 1,4-dihydro-2,6-dimethyl-4-(3-nitrophenyl)-3,5-pyridine-dicarboxylate], for which the “concentration detected in the cerebrospinal fluid” value is reported as at most 12.5 ng/mL.
